Literature values in paper PMC2978073 (Journal of medicinal chemistry, 2010).

Legend:
[1] = compared with 3
[2] = test system: rabbit model for cerebral palsy

SMILES | bioavailability [1] | effect on eNOS-regulated blood pressure [2] | hypoxia-ischemia induced death [2] | number of newborn kits exhibiting cerebral palsy phenotype [2]
Cc1cc(N)nc(C[C@H]2CNC[C@H]2OCCNCCc2cccc(F)c2)c1 (racemic) [(±)-4] | improved bioavailability | – | – | –
Cc1cc(N)nc(C[C@H]2CNC[C@H]2NCCNCCc2cccc(F)c2)c1 (racemic) [(±)-3] | – | without affecting eNOS-regulated blood pressure | prevent hypoxia-ischemia induced death | reduce the number of newborn kits exhibiting cerebral palsy phenotype
Cc1cc(N)nc(C[C@H]2CNC[C@H]2NCCNCc2ccc(Cl)cc2)c1 (racemic) [(±)-2] | – | without affecting eNOS-regulated blood pressure | prevent hypoxia-ischemia induced death | reduce the number of newborn kits exhibiting cerebral palsy phenotype
